In brackets after ≈: the same amount, converted by molar mass. Numbered stars: 1 amine (or outer) side, 2 acyl side, 3 side chain; on linkers, the order of the positions; unused ones are H or OH. Bridge positions count the residues as written; N and C are the ends. Square brackets hold non-standard residues; d marks the D form. Peptide text beside a SMILES is read from it. * marks the point of attachment. Phe(3R-OH) = O=C([C@@H](N[*:1])[C@H](O[*:3])c1ccccc1)[*:2]; NMeTrp(4-OMe) = CN[C@@H](Cc1c[nH]c2cccc(OC)c12)C(=O)O; NMeaIle = CC[C@@H](C)[C@H](NC)C(=O)O; NMe2Val = CC(C)[C@@H](C(=O)*)N(C)C; NMeT = CN[C@H](C(=O)O)[C@@H](C)O; NMeL = CN[C@@H](CC(C)C)C(=O)O; NMeV = CN[C@H](C(=O)O)C(C)C
What was measured:
[1] = system: Mycobacteroides abscessus; experiment: Antimycobacterial activity against Mycobacterium abscessus; format: functional
[2] = Binding affinity to Mycobacterium abscessus ClpC1 by SPR assay; parameters: species or system Mycobacteroides abscessus
[3] = system: Mycobacterium tuberculosis; experiment: Antimycobacterial activity against Mycobacterium tuberculosis; format: functional

Compound	MIC50 [1]	MIC [1]	Kd [2]	MIC [3]
CCCCCCCCCCCCCCCCOP1(=O)OCCC(C(=O)OC)=C(C)O1 (racemic)	0.37 µM (≈ 0.165 µg/mL)	–	–	–
C/C=C/C[C@@H]1NC(=O)[C@H](CC(C)C)N2C(=O)[C@H](C[C@H](C)[C@H]2O)N(C)C(=O)[C@H](C)NC(=O)[C@H](Cc2ccc(O)c([N+](=O)[O-])c2)NC(=O)[C@H](CC(C)C)N(C)C(=O)[C@H](Cc2cn(C(C)(C)C3CO3)c3ccccc23)NC1=O (some centres not stated)	–	0.42 µM (≈ 0.438 µg/mL)	0.1 µM	–
CC(C)COc1nn(-c2ccc(Oc3ccccc3)cc2)c(=O)o1	33 µM (≈ 10.8 µg/mL)	–	–	–
Cc1cc(C)c2cc(C(=O)NC3CCCCCC3)[nH]c2c1	–	0.06 µM (≈ 0.0171 µg/mL)	–	–
CC[C@@H](C)[C@@H](C(=O)N[C@@H]1C(=O)N(C)[C@@H]([C@@H](C)O)C(=O)N[C@@H](C(C)C)C(=O)N(C)[C@@H](CC(C)C)C(=O)N[C@@H](C(C)C)C(=O)N(C)[C@@H](C(C)C)C(=O)N(C)[C@@H](Cc2c[nH]c3cccc(OC)c23)C(=O)N[C@@H](C(C)C)C(=O)N[C@@H]([C@H](O)c2ccccc2)C(=O)N[C@@H](C(C)C)C(=O)O[C@@H]1C)N(C)C(=O)[C@@H](NC(=O)[C@H](C(C)C)N(C)C)C(C)C (NMe2Val-V[NMeaIle]T[NMeT]V[NMeL]V[NMeV][NMeTrp(4-OMe)]V[Phe(3R-OH)]V; ester 3-C)	–	–	0.1 µM	0.16 µM (≈ 0.256 µg/mL)
